The experiment concerns the target Inward rectifier potassium channel 2 (Homo sapiens) (UniProt P63252). In words: Inhibition of Kir2.1 (unknown origin) by patch clamp method.

A value given as a limit tells only on which side of the number the result lay.

Sequence of Inward rectifier potassium channel 2 (Homo sapiens) (P63252 whole entry, looked up): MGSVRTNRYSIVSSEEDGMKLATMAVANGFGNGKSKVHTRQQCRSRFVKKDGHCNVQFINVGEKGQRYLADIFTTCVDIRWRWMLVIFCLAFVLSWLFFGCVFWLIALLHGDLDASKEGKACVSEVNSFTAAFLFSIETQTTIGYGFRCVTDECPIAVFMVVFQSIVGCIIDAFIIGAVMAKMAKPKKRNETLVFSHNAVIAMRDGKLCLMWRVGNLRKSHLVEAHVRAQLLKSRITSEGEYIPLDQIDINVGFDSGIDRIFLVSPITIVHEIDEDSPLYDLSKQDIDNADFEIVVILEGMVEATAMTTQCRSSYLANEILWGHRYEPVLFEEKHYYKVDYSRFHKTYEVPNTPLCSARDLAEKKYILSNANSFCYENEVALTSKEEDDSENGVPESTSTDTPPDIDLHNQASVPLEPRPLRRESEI

As to `C[C@H](CC[C@](C)(O)C(F)(F)F)[C@H]1CC[C@H]2[C@@H]3CC=C4C[C@@](C)(O)CC[C@]4(C)[C@H]3CC[C@]12C` [Dalzanemdor], the half-inhibitory concentration (IC50) was greater than 30 µM.
